These compounds were tested against HPK1 (Homo sapiens, UniProt Q92918) (assay: HPK1 Lantha Binding Assay ("Lanth")). Conditions: Table B1-1, read-out: HPK1 Ki (μM) (Lanth).
Method in brief: (§1)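 TR-FRET tracer displacement with 2 nM GST-tagged kinase, 2 nM Eu-anti-GST antibody and 15 nM Tracer222 at 23 C. Enzyme–antibody preincubated 1 h with compound, then tracer added for 1 h; 340 nm excitation, 615/665 nm emission. Ki from Morrison fit over an 11-point 5-fold dilution.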

HPK1 (Homo sapiens, UniProt Q92918), sequence (Q92918 whole entry, looked up): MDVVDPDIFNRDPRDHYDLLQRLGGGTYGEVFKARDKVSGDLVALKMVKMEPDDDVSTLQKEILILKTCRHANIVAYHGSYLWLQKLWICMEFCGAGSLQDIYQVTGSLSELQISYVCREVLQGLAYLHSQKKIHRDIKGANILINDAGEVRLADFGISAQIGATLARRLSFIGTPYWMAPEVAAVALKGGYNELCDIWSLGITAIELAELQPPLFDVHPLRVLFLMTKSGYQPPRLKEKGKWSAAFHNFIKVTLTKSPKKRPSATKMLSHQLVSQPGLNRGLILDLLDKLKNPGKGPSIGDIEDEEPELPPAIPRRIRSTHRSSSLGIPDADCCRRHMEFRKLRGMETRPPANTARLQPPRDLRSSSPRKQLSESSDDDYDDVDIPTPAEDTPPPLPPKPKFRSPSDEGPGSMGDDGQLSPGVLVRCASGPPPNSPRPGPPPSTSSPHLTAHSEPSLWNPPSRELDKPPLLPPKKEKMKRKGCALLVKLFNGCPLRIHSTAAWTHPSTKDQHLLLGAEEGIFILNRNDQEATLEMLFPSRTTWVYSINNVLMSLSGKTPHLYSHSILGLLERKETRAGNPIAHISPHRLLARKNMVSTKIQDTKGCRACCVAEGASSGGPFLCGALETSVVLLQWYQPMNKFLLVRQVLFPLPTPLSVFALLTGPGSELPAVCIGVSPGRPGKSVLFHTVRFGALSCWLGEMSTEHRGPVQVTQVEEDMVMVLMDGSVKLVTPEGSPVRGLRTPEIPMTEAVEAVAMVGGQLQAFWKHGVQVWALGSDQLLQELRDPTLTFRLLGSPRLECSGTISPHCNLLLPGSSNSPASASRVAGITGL

| Compound | Ki |
| --- | --- |
| Cc1ccncc1-c1cc2cc(NC(=O)[C@@H]3C[C@H]3F)ncc2c(N)n1 (single isomer, unassigned) [Compound 107, (trans)-N-(8-amino-6-(4-methylpyridin-3-yl)-2,7-naphthyridin-3-yl)-2-fluorocyclopropane-1-carboxamide] | 0.654 nM |
| Cc1ccncc1-c1cc2cc(NC(=O)NC(C)CO)ncc2c(N)n1 (stereo not drawn) [Compound 117, l-(8-amino-6-(4-methylpyridin-3-yl)-2,7-naphthyridin-3-yl)-3-(1-hydroxypropan-2-yl)urea] | 8.47 nM |
| Cc1ccncc1-c1cc2cc(NC(=O)[C@@H]3C[C@]34CCN(S(C)(=O)=O)C4)ncc2c(N)n1 (racemic) [Compound 148, (±)-trans-N-(8-amino-6-(4-methylpyridin-3-yl)-2,7-naphthyridin-3-yl)-5-(methylsulfonyl)-5-azaspiro[2.4]heptane-1-carboxamide] | 2.8 nM |
| Cc1cc(N2CCC(N)C2)ncc1-c1cc2cc(NC(=O)C3CC3F)ncc2c(N)n1 (racemic) [Compound 179, (±)-cis-N-[8-amino-6-[6-[(3S)-3-aminopyrrolidin-1-yl]-4-methyl-3-pyridyl]-2,7-naphthyridin-3-yl]-2-fluoro-cyclopropanecarboxamide] | 2.9 nM |
| Cc1cc(-c2ccc[nH]c2=O)ncc1-c1cc2cc(NC(=O)[C@H]3C[C@H]3F)ncc2c(N)n1 (racemic) [Compound 167, (±)-cis-N-(8-amino-6-(4-methyl-6-(2-oxo-1,2-dihydropyridin-3-yl)pyridin-3-yl)-2,7-naphthyridin-3-yl)-2-fluorocyclopropanecarboxamide] | 9.4 nM |
| Cn1cc([C@H]2C[C@@H]2C(=O)Nc2cc3c(Cl)c(-c4cnccc4CCO)nc(N)c3cn2)cn1 (single isomer, unassigned) [Compound 332] | 5.62 nM |
| Cc1ccncc1-c1cc2cc(NC(=O)[C@@H]3C[C@H]3c3cn[nH]c3)ncc2c(N)n1 (racemic) [Compound 122, (±)-trans-N-[8-amino-6-(4-methyl-3-pyridyl)-2,7-naphthyridin-3-yl]-2-(1H-pyrazol-4-yl)cyclopropanecarboxamide] | 0.0629 nM |
| N#C[C@@H]1C[C@H]1C(=O)Nc1cc2cc(-c3cncc4c3CCCC4O)nc(N)c2cn1 (mixture of isomers) [Compound 99, (±)-trans-N-(8-amino-6-(8-hydroxy-5,6,7,8-tetrahydroisoquinolin-4-yl)-2,7-naphthyridin-3-yl)-2-cyanocyclopropane-1-carboxamide] | 70.7 nM |
| Cn1cc(-c2cc3cc(NC(=O)[C@H]4C[C@@H]4F)ncc3c(N)n2)cn1 (racemic) [Compound 8, trans-N-(8-amino-6-(1-methyl-1H-pyrazol-4-yl)-2,7-naphthyridin-3-yl)-2-fluorocyclopropanecarboxamide] | 1.64 nM |
| Cc1cc2[nH]c(=O)oc2cc1-c1cc2cc(NC(=O)[C@@H]3C[C@H]3c3cn[nH]c3)ncc2c(N)n1 (racemic) [Compound 144, (±)-trans-N-[8-amino-6-(5-methyl-2-oxo-3H-1,3-benzoxazol-6-yl)-2,7-naphthyridin-3-yl]-2-(1H-pyrazol-4-yl)cyclopropanecarboxamide] | 1.1 nM |
| CNC(=O)Cn1cc(Nc2cc3cc(-c4cnccc4C)nc(N)c3cn2)cn1 [Compound 184, 2-[4-[[8-amino-6-(4-methyl-3-pyridyl)-2,7-naphthyridin-3-yl]amino]pyrazol-1-yl]-N-methyl-acetamide] | 2.5 nM |
| Cc1cc(N)ncc1-c1cc2cc(NC(=O)[C@@H]3C[C@@H]3F)ncc2c(N)n1 (racemic) [Compound 16, (±)-cis-N-(8-amino-6-(6-amino-4-methylpyridin-3-yl)-2,7-naphthyridin-3-yl)-2-fluorocyclopropanecarboxamide] | 7.21 nM |
| Cc1ccncc1-c1cc2cc(NC(=O)[C@H]3C[C@]34CCNC4)ncc2c(N)n1 (racemic) [Compound 126, (±)-cis-N-(8-amino-6-(4-methylpyridin-3-yl)-2,7-naphthyridin-3-yl)-5-azaspiro[2.4]heptane-1-carboxamide] | 7 nM |

These compounds were tested against HPK1 (assay: HPK1 Lantha Binding Assay ("Lanth")). Conditions: Table B1-1, read-out: HPK1 Ki (μM) (Lanth).
Method in brief: as §1

| Compound | Ki |
| --- | --- |
| Cn1cc([C@@H]2C[C@H]2C(=O)Nc2cc3c(Cl)c(-c4cnccc4CCO)nc(N)c3cn2)cn1 [Compound 333, (1R,2R)—N-(8-amino-5-chloro-6-(4-(2-hydroxyethyl)pyridin-3-yl)-2,7-naphthyridin-3-yl)-2-(1-methyl-1H-pyrazol-4-yl)cyclopropanecarboxamide] | 0.432 nM |
| CCc1ccncc1-c1cc2cc(Nc3cccc(CO)n3)ncc2c(N)n1 [Compound 83, {6-[8-amino-6-(4-ethylpyridin-3-yl)-[2,7]naphthyridin-3-ylamino]pyridin-2-yl}methanol] | 0.3 nM |
| CCc1ccncc1-c1cc2cc(NC(=O)N[C@@H]3CCN(C)C3=O)ncc2c(N)n1 [Compound 176, (R)-1-(8-amino-6-(4-ethylpyridin-3-yl)-2,7-naphthyridin-3-yl)-3-(1-methyl-2-oxopyrrolidin-3-yl)urea] | 5.5 nM |
| Cc1ccncc1-c1nc(N)c2cnc(NC(=O)[C@H]3C[C@@H]3c3cnn(C)c3)cc2c1Cl [Compound 233, (1S,2S)—N-(8-amino-5-chloro-6-(4-methylpyridin-3-yl)-2,7-naphthyridin-3-yl)-2-(1-methyl-1H-pyrazol-4-yl)cyclopropanecarboxamide] | 0.694 nM |
| Cc1ccncc1-c1cc2cc(NC(=O)[C@@H]3C[C@]34CCNC(=O)C4)ncc2c(N)n1 [Compound 315, (1R,3R)—N-[8-amino-6-(4-methylpyridin-3-yl)-2,7-naphthyridin-3-yl]-5-oxo-6-azaspiro[2.5]octane-1-carboxamide] | 12.2 nM |
| Cc1ncncc1-c1cc2cc(NC(=O)[C@@H]3C[C@@H]3F)ncc2c(N)n1 [Compound 12, (1S,2S)—N-(8-amino-6-(4-methylpyrimidin-5-yl)-2,7-naphthyridin-3-yl)-2-fluorocyclopropanecarboxamide] | 49.3 nM |
| Cc1cc(-c2ccccc2)ncc1-c1cc2cc(NC(=O)[C@H]3C[C@@H]3CC#N)ncc2c(N)n1 [Compound 335, (1S,2R)—N-[8-amino-6-(4-methyl-6-phenylpyridin-3-yl)-2,7-naphthyridin-3-yl]-2-(cyanomethyl)cyclopropane-1-carboxamide] | 4.41 nM |
| N#Cc1ccncc1-c1cc2cc(NC(=O)[C@@H]3C[C@@H]3F)ncc2c(N)n1 [Compound 15, (1S,2S)—N-(8-amino-6-(4-cyanopyridin-3-yl)-2,7-naphthyridin-3-yl)-2-fluorocyclopropanecarboxamide] | 22.6 nM |
| Cc1ccccc1-c1cc2cc(NC(=O)[C@H]3C[C@@H]3c3cnn(C)c3)ncc2c(N)n1 [Compound 299, (1S,2S)—N-[8-amino-6-(2-methylphenyl)-2,7-naphthyridin-3-yl]-2-(1-methyl-1H-pyrazol-4-yl)cyclopropane-1-carboxamide] | 0.0359 nM |
| Cn1nccc1-c1cc2cc(NC(=O)[C@@H]3C[C@@H]3F)ncc2c(N)n1 [Compound 18, (1S,2S)—N-(8-amino-6-(1-methyl-1H-pyrazol-5-yl)-2,7-naphthyridin-3-yl)-2-fluorocyclopropanecarboxamide] | 47.5 nM |
| Cc1ccncc1-c1cc2cc(NC(=O)[C@H]3C[C@@H]3C#N)ncc2c(N)n1 [Compound 202, (1S,2S)—N-(8-amino-6-(4-methylpyridin-3-yl)-2,7-naphthyridin-3-yl)-2-cyanocyclopropane-1-carboxamide] | 0.4 nM |
| Nc1nc(-c2cnccc2C(F)F)cc2cc(NC(=O)[C@@H]3C[C@@H]3F)ncc12 [Compound 14, (1S,2S)—N-(8-amino-6-(4-(difluoromethyl)pyridin-3-yl)-2,7-naphthyridin-3-yl)-2-fluorocyclopropanecarboxamide] | 9.46 nM |
| Cc1ccncc1-c1cc2cc(NC(=O)Nc3ccccc3C#N)ncc2c(N)n1 [Compound 171, 1-[8-amino-6-(4-methyl-3-pyridyl)-2,7-naphthyridin-3-yl]-3-(2-cyanophenyl)urea] | 1500 nM |
| Cc1ccncc1-c1cc2cc(Nc3ccn(C)c(=O)c3)ncc2c(N)n1 [Compound 170, 4-[[8-amino-6-(4-methyl-3-pyridyl)-2,7-naphthyridin-3-yl]amino]-1-methyl-pyridin-2-one] | 3 nM |
| Cc1ccncc1-c1cc2cc(NC(=O)[C@H]3[C@@H]4CN(C5COC5)C[C@@H]43)ncc2c(N)n1 [Compound 255, (exo)-N-[8-amino-6-(4-methylpyridin-3-yl)-2,7-naphthyridin-3-yl]-3-(oxetan-3-yl)-3-azabicyclo[3.1.0]hexane-6-carboxamide] | 33.9 nM |
| Cc1ccncc1-c1nc(N)c2cnc(NC(=O)[C@@H]3C[C@H]3c3cn[nH]c3)cc2c1F [Compound 196, (1R,2R)—N-(8-amino-5-fluoro-6-(4-methylpyridin-3-yl)-2,7-naphthyridin-3-yl)-2-(1H-pyrazol-4-yl)cyclopropane-1-carboxamide] | 6.01 nM |
| Cc1c(N)cncc1-c1cc2cc(NC(=O)[C@@H]3C[C@H]3C#N)ncc2c(N)n1 [Compound 199, (1R,2R)—N-(8-amino-6-(5-amino-4-methylpyridin-3-yl)-2,7-naphthyridin-3-yl)-2-cyanocyclopropane-1-carboxamide] | 3.39 nM |
| Cc1ccncc1-c1cc2cc(NC(=O)[C@H]3C[C@@]34CCNC(=O)C4)ncc2c(N)n1 [Compound 314, (1S,3S)—N-[8-amino-6-(4-methylpyridin-3-yl)-2,7-naphthyridin-3-yl]-5-oxo-6-azaspiro[2.5]octane-1-carboxamide] | 13.1 nM |
| Cc1ccncc1-c1cc2cc(NC(=O)C3CC34CNC4)ncc2c(N)n1 (stereo not drawn) [Compound 113, N-[8-amino-6-(4-methyl-3-pyridyl)-2,7-naphthyridin-3-yl]-5-azaspiro[2.3]hexane-2-carboxamide] | 3.53 nM |
| Nc1nc(-c2cnccc2CCO)cc2cc(NC(=O)[C@H]3C[C@@H]3c3cccnc3)ncc12 [Compound 254, (1S,2S)—N-[8-amino-6-[4-(2-hydroxyethyl)pyridin-3-yl]-2,7-naphthyridin-3-yl]-2-(pyridin-3-yl)cyclopropane-1-carboxamide] | 4.55 nM |

Source: patent US11034692B1 (Genentech, Inc., priority 2017, dated 2021)
